Key:
Format in all cases: cell-based
human TLR7 = target: T1, human TLR7 (Homo sapiens, UniProt Q9NYK1); assay: TLR7 inhibition reporter assay (HEK-Blue cells, SEAP reporter, gardiquimod stimulation); conditions: HEK-Blue cells overexpressing human TLR7, SEAP reporter, gardiquimod 7.5 μM
T1 construct: host or cells: HEK-Blue cells
T1 sequence (Q9NYK1 27-1049): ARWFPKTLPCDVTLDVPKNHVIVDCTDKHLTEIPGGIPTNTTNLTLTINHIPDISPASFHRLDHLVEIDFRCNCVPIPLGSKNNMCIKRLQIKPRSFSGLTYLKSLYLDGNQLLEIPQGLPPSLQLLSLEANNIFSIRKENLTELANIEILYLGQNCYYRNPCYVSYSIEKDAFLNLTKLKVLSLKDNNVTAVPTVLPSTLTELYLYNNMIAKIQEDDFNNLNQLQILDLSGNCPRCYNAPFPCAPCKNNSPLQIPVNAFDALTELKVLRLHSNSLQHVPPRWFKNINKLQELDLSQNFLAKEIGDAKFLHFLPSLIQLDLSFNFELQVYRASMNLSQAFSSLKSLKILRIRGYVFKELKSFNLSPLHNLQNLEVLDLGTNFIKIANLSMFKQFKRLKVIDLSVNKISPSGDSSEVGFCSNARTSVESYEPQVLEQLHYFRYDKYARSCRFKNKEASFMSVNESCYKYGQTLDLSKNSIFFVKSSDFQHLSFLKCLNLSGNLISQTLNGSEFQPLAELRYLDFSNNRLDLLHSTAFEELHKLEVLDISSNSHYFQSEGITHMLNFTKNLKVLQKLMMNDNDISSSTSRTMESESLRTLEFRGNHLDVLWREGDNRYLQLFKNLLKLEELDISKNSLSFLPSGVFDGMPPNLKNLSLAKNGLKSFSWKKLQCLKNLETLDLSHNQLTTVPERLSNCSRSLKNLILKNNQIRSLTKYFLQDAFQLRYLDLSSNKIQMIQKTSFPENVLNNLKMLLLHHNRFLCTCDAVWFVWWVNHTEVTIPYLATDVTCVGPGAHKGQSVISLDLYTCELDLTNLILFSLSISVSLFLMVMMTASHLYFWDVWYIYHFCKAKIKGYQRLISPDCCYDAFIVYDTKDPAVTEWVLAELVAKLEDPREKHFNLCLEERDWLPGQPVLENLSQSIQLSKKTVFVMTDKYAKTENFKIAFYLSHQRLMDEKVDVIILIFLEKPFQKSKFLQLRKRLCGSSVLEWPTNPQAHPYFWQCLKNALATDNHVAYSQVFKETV
Method: (§1) TLR7/8/9 Inhibition Reporter Assays
(§2) HEK-Blue™-cells (Invivogen) overexpressing human TLR7, TLR8 or TLR9 receptors were used for screening inhibitors of these receptors using an inducible SEAP (secreted embryonic alkaline phosphatase) reporter gene under the control of the IFN-β minimal promoter fused to five NF-κB and AP-1-binding sites. Briefly, cells are seeded into Greiner 384 well plates (15000 cells per well for TLR7, 20,000 for TLR8 and 25,000 for TLR9) and then treated with test compounds in DMSO to yield a final dose response concentration range of 0.05 nM-50 μM. After a 30 minute compound pre-treatment at room temperature, the cells are then stimulated with a TLR7 ligand (gardiquimod at a final concentration of 7.5 μM), TLR8 ligand (R848 at a final concentration of 15.9 μM) or TLR9 ligand (ODN2006 at a final concentration of 5 nM) to activate NF-κB and AP-1 which induce the production of SLA After a 22 hour incubation at 37° C., […], SEAP levels are determined with the addition of HEK-Blue™ Detection reagent (Invivogen), a cell culture medium that allows for detection of SLAP, according to manufacturer's specifications. The percent inhibition is determined as the % reduction in the HEK-Blue signal present in wells treated with agonist plus DMSO alone compared to wells treated with a known inhibitor.

human TLR8 = target: T2, human TLR8 (Homo sapiens, UniProt Q9NR97); assay: TLR8 inhibition reporter assay (HEK-Blue cells, SEAP reporter, R848 stimulation); conditions: HEK-Blue cells overexpressing human TLR8, SEAP reporter, R848 15.9 μM
T2 construct: host or cells: HEK-Blue cells
T2 sequence (Q9NR97 27-1041): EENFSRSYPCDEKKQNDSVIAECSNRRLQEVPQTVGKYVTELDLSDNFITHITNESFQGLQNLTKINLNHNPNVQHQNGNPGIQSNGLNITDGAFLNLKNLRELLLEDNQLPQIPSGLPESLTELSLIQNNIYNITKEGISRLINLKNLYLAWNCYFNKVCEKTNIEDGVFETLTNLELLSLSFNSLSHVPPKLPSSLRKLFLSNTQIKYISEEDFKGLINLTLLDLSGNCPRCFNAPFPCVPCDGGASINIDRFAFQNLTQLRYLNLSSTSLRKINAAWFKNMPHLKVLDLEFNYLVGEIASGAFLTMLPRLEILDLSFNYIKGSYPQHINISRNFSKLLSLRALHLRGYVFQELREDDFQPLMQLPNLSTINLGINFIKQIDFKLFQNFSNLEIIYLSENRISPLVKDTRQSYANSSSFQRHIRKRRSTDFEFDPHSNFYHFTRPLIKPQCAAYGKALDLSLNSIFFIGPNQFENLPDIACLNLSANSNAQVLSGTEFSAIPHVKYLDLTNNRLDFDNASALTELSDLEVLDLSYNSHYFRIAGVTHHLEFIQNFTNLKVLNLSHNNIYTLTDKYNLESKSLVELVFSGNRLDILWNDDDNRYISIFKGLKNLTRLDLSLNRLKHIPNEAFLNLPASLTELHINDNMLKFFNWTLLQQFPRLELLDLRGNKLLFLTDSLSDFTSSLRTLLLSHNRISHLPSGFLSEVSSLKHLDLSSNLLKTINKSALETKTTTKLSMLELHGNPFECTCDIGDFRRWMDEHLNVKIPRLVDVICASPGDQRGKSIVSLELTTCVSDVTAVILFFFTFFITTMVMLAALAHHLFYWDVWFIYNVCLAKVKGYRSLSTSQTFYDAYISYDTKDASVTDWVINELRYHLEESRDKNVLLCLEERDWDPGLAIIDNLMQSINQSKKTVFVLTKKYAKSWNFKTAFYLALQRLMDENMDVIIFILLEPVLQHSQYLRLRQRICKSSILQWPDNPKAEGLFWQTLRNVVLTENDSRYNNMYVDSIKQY
Method: as §1, §2

human TLR9 = target: T3, human TLR9 (Homo sapiens, UniProt Q9NR96); assay: TLR9 inhibition reporter assay (HEK-Blue cells, SEAP reporter, ODN2006 stimulation); conditions: HEK-Blue cells overexpressing human TLR9, SEAP reporter, ODN2006 5 nM
T3 construct: host or cells: HEK-Blue cells
T3 sequence (Q9NR96 26-1032): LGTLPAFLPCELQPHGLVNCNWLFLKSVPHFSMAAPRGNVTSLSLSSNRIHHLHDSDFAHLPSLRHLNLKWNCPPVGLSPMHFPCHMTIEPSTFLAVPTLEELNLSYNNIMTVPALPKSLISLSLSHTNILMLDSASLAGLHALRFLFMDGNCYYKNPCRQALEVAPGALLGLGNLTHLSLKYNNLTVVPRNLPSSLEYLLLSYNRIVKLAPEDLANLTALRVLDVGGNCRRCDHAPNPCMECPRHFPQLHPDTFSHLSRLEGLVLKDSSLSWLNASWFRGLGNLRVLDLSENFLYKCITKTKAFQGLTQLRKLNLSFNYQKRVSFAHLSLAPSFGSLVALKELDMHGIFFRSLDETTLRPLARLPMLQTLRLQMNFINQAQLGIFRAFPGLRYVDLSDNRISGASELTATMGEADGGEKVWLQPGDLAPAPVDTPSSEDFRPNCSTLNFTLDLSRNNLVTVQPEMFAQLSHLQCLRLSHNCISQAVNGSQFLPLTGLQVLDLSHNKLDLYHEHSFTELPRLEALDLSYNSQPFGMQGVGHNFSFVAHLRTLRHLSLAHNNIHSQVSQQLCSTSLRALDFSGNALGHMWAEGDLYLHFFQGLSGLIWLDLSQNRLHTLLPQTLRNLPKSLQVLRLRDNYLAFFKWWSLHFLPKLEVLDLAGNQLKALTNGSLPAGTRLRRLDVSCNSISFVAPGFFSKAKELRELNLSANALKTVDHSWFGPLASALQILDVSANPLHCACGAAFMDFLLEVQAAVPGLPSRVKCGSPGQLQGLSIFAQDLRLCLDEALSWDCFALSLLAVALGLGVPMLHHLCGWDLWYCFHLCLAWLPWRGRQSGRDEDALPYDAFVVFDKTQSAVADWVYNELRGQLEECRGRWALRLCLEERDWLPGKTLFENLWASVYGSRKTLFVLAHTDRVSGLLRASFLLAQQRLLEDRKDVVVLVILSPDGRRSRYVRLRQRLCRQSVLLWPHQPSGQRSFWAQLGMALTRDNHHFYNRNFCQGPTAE
Method: as §1, §2

| Compound | IC50 (human TLR7) [nM] | IC50 (human TLR8) [nM] | IC50 (human TLR9) [nM] |
| --- | --- | --- | --- |
| Cc1cc(-c2[nH]nc(C3CCC(N(C)C(=O)C4CN(C(C)C)C4)CC3)c2C(C)C)cn2ncnc12 (single isomer, unassigned) [Example 303] | 7.99 | 0.93 | 26400 |
| Cc1cc(-c2[nH]nc(C3CCC(N(C)C(=O)C4CN(C(C)C)C4)CC3)c2C(C)C)cn2ncnc12 (single isomer, unassigned) [Example 304] | 8.2 | 19.2 | 35600 |
| CCN1CC(C(=O)N(C)C2CCC(c3n[nH]c(-c4cc(C)c5ncnn5c4)c3C(C)C)CC2)C1 (single isomer, unassigned) [Example 305] | 311 | 70 | > 50000 |
| CCN1CC(C(=O)N(C)C2CCC(c3n[nH]c(-c4cc(C)c5ncnn5c4)c3C(C)C)CC2)C1 (single isomer, unassigned) [Example 306] | 148 | 124 | > 50000 |
| Cc1cc(-c2[nH]nc(C3CCC(N(C)C(=O)CN(C)C)CC3)c2C(C)C)cn2ncnc12 (single isomer, unassigned) [compound 297] | 2.25 | 0.27 | 8910 |
| Cc1cc(-c2[nH]nc(C3CCC(N(C)CC(=O)N(C)C)CC3)c2C(C)C)cn2ncnc12 (single isomer, unassigned) [compound 299] | 1.42 | 0.72 | 12700 |
| Cc1cc(-c2[nH]nc(C(=O)NC3CCN(C(=O)OC(C)(C)C)CC3)c2C(C)C)cn2ncnc12 [Example 1, tert-butyl 4-(4-isopropyl-5-(8-methyl-[1,2,4]triazolo[1,5-a]pyridin-6-yl)-1H-pyrazole-3-carboxamido)piperidine-1-carboxylate] | 2.01 | 8.14 | 760 |
| Cc1cc(-c2[nH]nc(C(=O)NC3CCN(C(C)C)CC3)c2C(C)C)cn2ncnc12 [Example 2] | 2.27 | 5.82 | 6560 |
| Cc1cc(-c2[nH]nc(C(=O)NCCN3CCOCC3)c2C(C)C)cn2ncnc12 [Example 3] | 1.84 | 3.05 | 18500 |
| Cc1cc(-c2[nH]nc(C(=O)NCCc3ccccn3)c2C(C)C)cn2ncnc12 [Example 4] | 5.52 | 33.9 | 287 |
| Cc1cc(-c2[nH]nc(C(=O)N(C)C3CCN(C)CC3)c2C(C)C)cn2ncnc12 [Example 6] | 2.05 | 20.9 | 1100 |
| Cc1cc(-c2[nH]nc(C(=O)NC3CCC(N(C)C)CC3)c2C(C)C)cn2ncnc12 (stereo not drawn) [Example 7] | 7.8 | 6.59 | 5470 |
| Cc1cc(-c2[nH]nc(C(=O)NC3CCN(C)CC3)c2C(C)C)cn2ncnc12 [Example 8] | 2.47 | 5.42 | 30900 |
| COc1cc(-c2[nH]nc(C(=O)N(C)C3CCN(C)CC3)c2C(C)C)cn2ncnc12 [Example 9] | > 3130 | > 3130 | 4160 |
| COc1cc(-c2[nH]nc(C(=O)N3CCCN(C)CC3)c2C(C)C)cn2ncnc12 [Example 10] | 1.37 | 1.9 | 1330 |
| COc1cc(-c2[nH]nc(C(=O)NC3CCN(C)CC3)c2C(C)C)cn2ncnc12 [Example 11] | 3.78 | 9.31 | 18500 |
| COc1cc(-c2[nH]nc(C(=O)NC3CCN(C(C)C)CC3)c2C(C)C)cn2ncnc12 [Example 12] | 1.59 | 0.86 | 2150 |
| Cc1cc(-c2[nH]nc(C(=O)N3CCC(N(C)C)CC3)c2C(C)C)cn2ncnc12 [Example 13] | 5.04 | 2.03 | 3330 |
| Cc1cc(-c2[nH]nc(C(=O)N3CCN(c4ccncc4)CC3)c2C(C)C)cn2ncnc12 [Example 14] | 1.92 | 0.94 | 3840 |
| Cc1cc(-c2[nH]nc(C(=O)N3CCC(C(N)=O)CC3)c2C(C)C)cn2ncnc12 [Example 15] | 4.15 | 3.14 | 7810 |

Source: patent publication US20230117470A1, “SUBSTITUTED PYRAZOLE COMPOUNDS AS TOLL RECEPTOR INHIBITORS” (BRISTOL-MYERS SQUIBB COMPANY, priority 2019, published 2023)
